These results are taken from PubChem BioAssay (NCI).

Test systems include A549 NSCLC; IGROV1 ovarian; MDA-MB-231 breast; RXF 393 renal; SK-MEL-2 melanoma; SK-MEL-28 melanoma; SNB-19 CNS; UO-31 renal; EKVX NSCLC; HOP-92 NSCLC.
Holding throughout (experiment): NCI-60 cell line screen, 48 h

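48-hour exposure; five concentrations; linearly interpolated endpoints. TGI denotes the concentration required for complete inhibition of growth.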

In the case of `Cc1ccc(S(=O)(=O)N/N=C2\C3CC4CC(C3)C2C4)cc1` (stereo not given), the TGI in the test on A549 NSCLC, in the test on IGROV1 ovarian, in the test on MDA-MB-231 breast, in the test with RXF 393 renal, in the test on SK-MEL-2 melanoma and in the test with SK-MEL-28 melanoma was more than 100 µM in each case. The TGI in the test with SNB-19 CNS and in the test on UO-31 renal was more than 100 µM throughout.

As to `Cc1cc2n([O-])cccc-2[n+](=O)c1`, the TGI in the test with A549 NSCLC, in the test with EKVX NSCLC, in the test with HOP-92 NSCLC, in the test on IGROV1 ovarian, with RXF 393 renal and with SK-MEL-2 melanoma was more than 100 µM in each case. For the same compound, the TGI with SK-MEL-28 melanoma, with SNB-19 CNS and in the test on UO-31 renal was more than 100 µM each time.

As for `COC(=O)CC(NC(=O)OCc1ccccc1)C(C(=O)OCc1ccccc1)C1(C)OCCO1` (stereo not given), the TGI in the test with A549 NSCLC is more than 100 µM; in the test on EKVX NSCLC, more than 100 µM; with IGROV1 ovarian, more than 100 µM; in the test on RXF 393 renal it was more than 100 µM; in the test on SK-MEL-2 melanoma it was 43.8 µM; with SK-MEL-28 melanoma, more than 100 µM. For the same compound, the TGI is more than 100 µM in the test on SNB-19 CNS and 61.1 µM in the test on UO-31 renal.

As to `COC(=O)c1c(OC)cc2cc3c(c(O)c2c1C)C(=O)C1(O)C(=O)C=C(OC)C(OC(=O)CC(C)N)=C1C3=O` (stereo not given), the TGI in the test on A549 NSCLC was more than 100 µM; in the test with EKVX NSCLC, 72.4 µM; in the test with HOP-92 NSCLC, more than 100 µM; in the test with IGROV1 ovarian, 69.1 µM; in the test on MDA-MB-231 breast, 43.4 µM; with SK-MEL-2 melanoma it was more than 100 µM. Further, the TGI with SK-MEL-28 melanoma, in the test with SNB-19 CNS and in the test with UO-31 renal was more than 100 µM throughout.

As for `CC1(C)COC(c2c(-c3ccccc3)noc2CS(=O)c2ccccc2)=N1` (stereo not given), the TGI with A549 NSCLC is more than 100 µM; in the test on EKVX NSCLC it was more than 100 µM; in the test on IGROV1 ovarian it was more than 100 µM; with RXF 393 renal it was more than 100 µM; in the test with SK-MEL-2 melanoma, 70.2 µM; with SK-MEL-28 melanoma it was more than 100 µM. Moreover, the TGI in the test on SNB-19 CNS and in the test on UO-31 renal was more than 100 µM in each case.

Regarding `OC12CCCCCC1(N1CCOCC1)c1ccccc12` (stereo not given), the TGI in the test on A549 NSCLC, in the test with IGROV1 ovarian, in the test on RXF 393 renal, in the test with SK-MEL-2 melanoma, in the test on SK-MEL-28 melanoma and in the test with SNB-19 CNS was more than 100 µM throughout. This compound came in with a TGI in the test on UO-31 renal of more than 100 µM.

For `COc1cccc(CN(C(=O)/C=C\Sc2ccccc2)C(C)(C)C)c1`, the TGI was more than 100 µM with A549 NSCLC; more than 100 µM in the test with EKVX NSCLC; 70.8 µM in the test on HOP-92 NSCLC; more than 100 µM in the test on IGROV1 ovarian; more than 100 µM in the test on MDA-MB-231 breast; more than 100 µM with SK-MEL-2 melanoma. The TGI in the test on SK-MEL-28 melanoma, in the test on SNB-19 CNS and in the test on UO-31 renal was more than 100 µM throughout.

As for `COc1cc2cc(C(=O)N3CC(CCl)c4c3cc([N+](C)(C)Cc3ccc([N+](=O)[O-])n3C)c3ccccc43)[nH]c2c(OC)c1OC` (stereo not given), the TGI in the test on A549 NSCLC is 1.06 µM; in the test on EKVX NSCLC, 16.4 µM; with HOP-92 NSCLC, 6.26 µM; with IGROV1 ovarian, 4.23 µM; in the test on SK-MEL-2 melanoma, 1.5 µM; with SK-MEL-28 melanoma it was 9.11 µM. Besides, in the test on SNB-19 CNS, the TGI was more than 100 µM.

For the compound `CC(c1ccccc1)N1CC(C)(c2ccccc2)N(O)C(c2ccccc2)C1C` (stereo not given), the TGI with A549 NSCLC was 37.8 µM; in the test on EKVX NSCLC it was 62.1 µM; in the test on HOP-92 NSCLC it was 8.36 µM; with IGROV1 ovarian it was more than 100 µM; with RXF 393 renal, 36.8 µM; with SK-MEL-2 melanoma, 28 µM. Further, the TGI is 21.9 µM in the test with SK-MEL-28 melanoma, more than 100 µM in the test with SNB-19 CNS and 10.2 µM with UO-31 renal.

With `N#CCCC1(CCC#N)CCCCCCC(CCC#N)(CCC#N)C(O)C1O` (stereo not given), the TGI in the test on A549 NSCLC, in the test with HOP-92 NSCLC, with IGROV1 ovarian, with RXF 393 renal, in the test on SK-MEL-2 melanoma and in the test on SK-MEL-28 melanoma was more than 100 µM in each case. The TGI with SNB-19 CNS and in the test with UO-31 renal was more than 100 µM each time.

`O=c1c2c(nc3n1CCC3)sc1c(O)c(Br)ccc12`: the TGI is 29.9 µM with A549 NSCLC; 68.6 µM in the test on EKVX NSCLC; more than 100 µM with HOP-92 NSCLC; 82.5 µM with IGROV1 ovarian; more than 100 µM in the test with RXF 393 renal; 39.3 µM in the test on SK-MEL-2 melanoma. The TGI in the test with SK-MEL-28 melanoma is 34.8 µM; with SNB-19 CNS, more than 100 µM; in the test on UO-31 renal, 45.8 µM.

`Cc1cc2occ(-c3ccc(Cl)cc3)c2c(=O)o1`: the TGI with A549 NSCLC, in the test on EKVX NSCLC, in the test with HOP-92 NSCLC, in the test with IGROV1 ovarian, in the test on RXF 393 renal and with SK-MEL-2 melanoma was more than 100 µM throughout. Besides, the TGI in the test with SK-MEL-28 melanoma, in the test with SNB-19 CNS and in the test on UO-31 renal was more than 100 µM in each case.

On to `Cc1cc(=O)[nH]c(NNC(C#N)c2ccc([N+](=O)[O-])cc2)n1` (stereo not given), for which the TGI with A549 NSCLC, in the test on HOP-92 NSCLC, in the test on IGROV1 ovarian, in the test on RXF 393 renal, with SK-MEL-2 melanoma and with SK-MEL-28 melanoma was more than 100 µM in each case. Also, the TGI in the test with UO-31 renal is more than 100 µM.

Regarding `Cc1cc([N+](=O)[O-])c(S(=O)(=O)c2ccccc2)c([N+](=O)[O-])c1`, the TGI in the test with A549 NSCLC was 41.3 µM; in the test on EKVX NSCLC, more than 72.5 µM; with HOP-92 NSCLC it was 5.28 µM; in the test with IGROV1 ovarian, 31.1 µM; in the test on RXF 393 renal, 4.8 µM; in the test with SK-MEL-2 melanoma, 47.6 µM. Also, the results for the TGI in the test on SK-MEL-28 melanoma, in the test on SNB-19 CNS and in the test with UO-31 renal were 40.9 µM, 32.9 µM and 31 µM, respectively.

As for `CCN(CC)CCCCC1CCN(CC(=O)N2c3ccccc3NC(=O)CC2C)CC1` (stereo not given), the TGI with A549 NSCLC, in the test with EKVX NSCLC, with HOP-92 NSCLC, in the test with IGROV1 ovarian, with RXF 393 renal and in the test with SK-MEL-2 melanoma was more than 100 µM in each case. In addition, the TGI in the test with SK-MEL-28 melanoma, in the test with SNB-19 CNS and with UO-31 renal was more than 100 µM each time.
